Two compounds from patent US9388123B2, “LSD1-selective inhibitor having lysine structure” (KYOTO UNIVERSITY, priority 2012, dated 2016) can be followed below.

A word on the IC50: it is the concentration that inhibits the measured activity by half.

Counter-ions that a name gives are not always drawn.

In series [1] the test system is MLL/AF9 leukemia cell line. Description: Leukemia cell growth inhibition evaluation (WST-8). Type of series: cell-based. The settings on record: Mus musculus, day 3 (72-hour culture), read-out: Mouse MLL-fusion leukemia cell line GI50 (μM) MLL/AF9. The text has this: (§1) HL60, THP-1, K562, U937, KGla, HEL, and MDS-L were used as human leukemia cells. The cell lines are cell lines established from various subtypes such as acute myeloid leukemia, acute promyelocytic leukemia, acute monocytic leukemia, acute erythroid leukemia, and myelodysplastic syndromes, which progress to leukemia. Cells obtained by introducing leukemia fusion genes MLL/AF9, MLL/SEPT6, and MLL/ENL into the bone marrow of normal mice with a retrovirus so as to develop leukemia were used as murine leukemia cell lines.
(§2) This assay method involves, as a principle thereof, measuring an absorbance (a peak at from 450 nm to 490 nm) at the time of color development through a reaction of NADH, which is contained in the mitochondria of viable cells, and WST-8 to measure the amount of NADH. Specifically, the assay was performed by the following procedure.
(§3) The cells were plated at 50 μl, i.e., 5,000 cells per well in a 96-well microtiter plate. Next, a test compound dissolved in DMSO was mixed at various concentrations into the same medium, and 50 μl of each of the mixtures was added to each well. A medium was prepared so that the final concentration of the test compound was from 0 μM to 50 μM and so that the addition amount of DMSO was the same, and the cells were cultured in a CO2 incubator. On day 0 before the addition and on day 1, day 2, and day 3 after the addition, WST-8 reagent was added at 20 μl per well, and the cells were cultured for 1 hour in a CO2 incubator. After that, measurement was performed with ARVO X3 (manufactured by PerkinElmer).
(§4) Specifically, an absorbance at 450 nm was measured, an absorbance at 595 nm was measured in the same well, and the absorbance at 595 nm was subtracted from the absorbance at 450 nm to perform background correction for the well itself. Further, a well containing only a medium free of cells was subjected to the same measurement. A value in this case was also subtracted. Thus, the amount of viable cells was represented as a numerical value with correction of the influence of a medicament or a medium as well. Under a condition not containing the test compound (addition of only dimethyl sulfoxide), an exponential increase in number of viable cells on day 1, day 2, and day 3 in the stated order was confirmed.
A general note: Tetrazolium assays rely on reduction of a dye to a coloured formazan, in cell work by metabolically active cells.

The test system of another series is HEL. The series can be described thus: Leukemia cell growth inhibition evaluation (WST-8). Type of series: cell-based. Conditions: Homo sapiens, day 3 (72-hour culture), read-out: Human leukemia cell line GI50 (μM) HEL.
Text: as §1, §2, §3, §4

A further series concerns KG1a. The series can be described thus: Leukemia cell growth inhibition evaluation (WST-8). Type of series: cell-based. Conditions: Homo sapiens, KG-1a; day 3 (72-hour culture); read-out: Human leukemia cell line GI50 (μM) KG1a.
Text: as §1, §2, §3, §4

A further series deals with THP1. Description: Leukemia cell growth inhibition evaluation (WST-8). Type of series: cell-based. The settings on record: Homo sapiens, THP-1; day 3 (72-hour culture); read-out: Human leukemia cell line GI50 (μM) THP1.
Text: as §1, §2, §3, §4

In a further series the test system is HL60. The series can be described thus: Leukemia cell growth inhibition evaluation (WST-8). Type of series: cell-based. The settings on record: Homo sapiens, HL-60; day 3 (72-hour culture); read-out: Human leukemia cell line GI50 (μM) HL60.
Text: as §1, §2, §3, §4

The test system of a further series is U937. Description: Leukemia cell growth inhibition evaluation (WST-8). Type of series: cell-based. Conditions: Homo sapiens, U-937; day 3 (72-hour culture); read-out: Human leukemia cell line GI50 (μM) U937.
Text: as §1, §2, §3, §4

The test system of series [2] is MLL/SEPT6 leukemia cell line. The series can be described thus: Leukemia cell growth inhibition evaluation (WST-8). Type of series: cell-based. Conditions: Mus musculus; day 3 (72-hour culture); read-out: Mouse MLL-fusion leukemia cell line GI50 (μM) MLL/SEPT6.
Text: as §1, §2, §3, §4

A further series relates to MDS-L. The series can be described thus: Leukemia cell growth inhibition evaluation (WST-8). Conditions: Homo sapiens; day 3 (72-hour culture); read-out: Human leukemia cell line GI50 (μM) MDS-L. Type of series: cell-based.
Text: as §1, §2, §3, §4

In series [3] the target is T1, monoamine oxidase B (MAO-B) (Homo sapiens, UniProt P27338).
T1 construct: purchased Sigma-Aldrich
T1 sequence (P27338 1-520): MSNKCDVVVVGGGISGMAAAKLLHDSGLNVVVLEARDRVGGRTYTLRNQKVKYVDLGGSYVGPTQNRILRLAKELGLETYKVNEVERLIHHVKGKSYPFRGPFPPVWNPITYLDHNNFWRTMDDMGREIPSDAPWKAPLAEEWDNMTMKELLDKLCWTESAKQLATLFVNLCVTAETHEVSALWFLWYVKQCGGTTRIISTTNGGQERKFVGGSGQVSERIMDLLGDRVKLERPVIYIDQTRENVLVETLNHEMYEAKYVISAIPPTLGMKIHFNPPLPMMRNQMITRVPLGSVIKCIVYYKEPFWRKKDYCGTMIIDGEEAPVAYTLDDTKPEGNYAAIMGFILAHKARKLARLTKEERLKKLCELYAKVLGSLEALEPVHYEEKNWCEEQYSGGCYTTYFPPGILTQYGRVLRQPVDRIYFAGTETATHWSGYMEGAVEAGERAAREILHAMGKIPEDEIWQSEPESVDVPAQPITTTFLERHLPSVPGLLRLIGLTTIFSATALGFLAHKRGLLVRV
The series can be described thus: Monoamine oxidase inhibition test (MAO-Glo assay kit). Conditions: room temperature, 1 hour. Type of series: biochemical.
Method: To the reaction liquid was added 50 μL of a luciferin detection reagent, and the mixture was subjected to a reaction at room temperature for 20 minutes.

For series [4], the system named is bone marrow cells of normal mice. Description: Normal cell growth inhibition evaluation (colony forming ability in methylcellulose semi-solid medium). Conditions: 10 days culture, FIG. 1. Type of series: cell-based. The text has this:
In general, a semi-solid medium obtained by adding a cytokine involved in differentiation induction to a methylcellulose medium is used to evaluate a colony forming ability. Some of the bone marrow cells contain hematopoietic stem cells and precursor cells, which are sources of hematopoietic cells, and these cells can create a mass (called a colony) formed of several tens, several hundreds, and in some cases, several thousands of cells from a single cell on a semi-solid medium. The colony forming ability of the bone marrow cells may be evaluated by counting the number of the colonies. The colony forming ability in the semi-solid medium well reflects an actual supply ability and construction ability from the hematopoietic stem cells and precursor cells to the hematopoietic cells in vivo.
To 3 ml of MethoCult M3434 (methylcellulose-based semi-solid medium; StemCell Technologies; containing interleukin 3(IL-3), interleukin 6 (IL-6), erythropoietin (EPO), and stem cell factor (SCF)) were added 600,000 bone marrow cells of normal mice (suspended in 300 μl of IMDM medium), and the mixture was stirred well and plated at 1.1 ml per 3.5-cm culture dish. The cells were cultured under the conditions of 5% CO2 and 37° C. for 10 days in an incubator. A mass in which the number of cells was 50 or more was defined as a colony, and the number of colonies formed on each dish was counted.

[5] abbreviates: at a concentration of up to 5 μM.

Regarding `O=C(N[C@@H](CCCCNC1CC1c1ccccc1)C(=O)NCc1ccccc1)c1ccc(-c2ccccc2)cc1` (stereo partly drawn) [Example 8, 2-[N-(4-Phenylbenzenecarbonyl)]amino-6-(trans-2-phenylcyclopropan-1-amino)-N-benzylhexanamide Hydrochloride], the GI50 was less than 2 µM in series [1]; less than 1.3 µM with HEL; approximately 6.3 µM in the series on KG1a; 5 to 6 µM in the series with THP1; 4 to 5 µM in the series with HL60; 4.6 µM with U937. For the same compound, the results for the GI50 (in series [2]; in the series with MDS-L) were 4 to 5 µM and less than 1.3 µM, respectively. For the same compound, in series [3], the IC50 is more than 100 µM. The colony forming ability result in series [4] (at 10 μM) is “remarkably inhibited”; in [4] (setting [5]) it was “not inhibited”.
On to `O=C(N[C@@H](CCCCNC1CC1c1ccccc1)C(=O)NCc1cccc(C(F)(F)F)c1)c1ccc(-c2ccccc2)cc1` (stereo partly drawn) [Example 19, 2-[N-(4-Phenylbenzenecarbonyl)]amino-6-(trans-2-phenylcyclopropan-1-amino)-N-(3-trifluoromethylbenzyl)hexanamide Hydrochloride], for which the GI50 in series [1] is less than 1.25 µM; with HEL, approximately 5 µM; with KG1a it was 5 to 10 µM; in the series on THP1, 5 to 10 µM; with HL60, 2.5 to 5 µM; in the series on U937, 10 to 20 µM. Besides, the GI50 in series [2] was 2.5 to 5 µM; with MDS-L it was less than 1.3 µM. Also, the IC50 in [3] was more than 100 µM. In addition, the colony forming ability entry in series [4] (at 10 μM) is “remarkably inhibited”; in series [4] (setting [5]), “not inhibited”.
